Experimental data as given in US20100261710A1, “HDAC Inhibitors” (ARQULE, INC., priority 2007, published 2010).

Assays:
[1] = tested on: HCT-116 cells; assay: MTS cell viability assay, HCT-116; type: cell-based; details: Homo sapiens, HCT-116, 72 h, read-out: HCT-116, IG50, MTS (uM)
Procedure: (§1) The MTS cell viability assay was used to determine the potency of proliferation inhibitor with. MTS measures mitochondrial dehydrogenase activity and serves as surrogate readout for the number of viable cells.
(§2) For MTS assay, cells were plated in 96-well plates at 2000 cells per well and incubated in the presence of compounds for 72 hr. MTS was added to each well as instructed by manufacture (Promega) and plates were incubated for 4 h at 37° C. The absorbance of each well was measured at 490 nm using a microplate reader.

[2] = target: T1, HDAC1 (Homo sapiens, UniProt Q13547); assay: HDAC-1 immunocapture fluorescent biochemical assay (HeLa lysate); details: HDAC1 immunocaptured from HeLa extract
T1 construct: cell extract containing HDAC (HeLa in these experiments); endogenous in cells; host or cells: HeLa cell extract
T1 sequence (Q13547 whole entry): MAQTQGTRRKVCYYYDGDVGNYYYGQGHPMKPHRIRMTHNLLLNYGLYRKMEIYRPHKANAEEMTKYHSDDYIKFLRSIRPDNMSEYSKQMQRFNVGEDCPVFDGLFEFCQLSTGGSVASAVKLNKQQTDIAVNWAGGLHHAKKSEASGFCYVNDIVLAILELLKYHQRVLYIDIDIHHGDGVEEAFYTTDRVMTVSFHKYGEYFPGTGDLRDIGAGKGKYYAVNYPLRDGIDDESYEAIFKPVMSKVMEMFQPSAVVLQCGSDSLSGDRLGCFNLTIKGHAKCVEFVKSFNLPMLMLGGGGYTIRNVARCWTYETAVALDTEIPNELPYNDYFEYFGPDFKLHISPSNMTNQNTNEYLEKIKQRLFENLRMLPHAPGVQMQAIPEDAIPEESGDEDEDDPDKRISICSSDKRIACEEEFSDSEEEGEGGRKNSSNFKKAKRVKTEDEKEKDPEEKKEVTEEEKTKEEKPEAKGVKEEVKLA
Procedure: The HDAC-1 assay represents a novel immunocapture assay procedure. […] The HDAC1 is captured on a protein A coated plate using HDAC1 specific antibody, and is then allowed to react with the substrate.
This assay in performed in four general steps. In the first step (FIG. 1A), cell extract containing HDAC (HeLa in these experiments) is incubated with (cell signaling) rabbit polyclonal HDAC1 antibody (rabbit IgG antibody is used for background control) to allow binding of the enzyme to the antibody. In the second step, the complexed mixture is added to the protein A covered plate which captures the antibody. In the third step, after washing away unbound proteins, substrate and inhibitor are added and deacetylation is allowed to occur. […] The plate is then read on either Victor or Perkin Elmer Envision system using Umbilliferone filter set.
• A. HeLa extract complexed with HDAC1 antibody working solution (in DPBS):
Compound working solution (in HDAC buffer):
Compounds diluted in assay buffer at 2× Screening concentration. • D. Activator solution:
Trypsin (10 mg/mL) diluted 1:1600 in assay buffer containing 4 μM TSA.
Complexing of extract with antibody was carried out at room temperature for 60 min with rocking. Binding of complexes onto protein A plate was carried out at room temperature for 60 min in 50 μL. Reaction was carried out in […], in the protein A plate for 60 minutes at 37° C. 40 μL of the reaction was moved into white ½ area plate for activation and reading.
• 1. Set PIERCE Protein A plate to block with 150 μof 5% BSA in TB ST for 60 min at room temperature. • 2. […] Dilute complexes further ([…]) by addition of 3.5 mL of PBS (final total volume of 5 mL). • 4. Wash blocked protein A plate prior to complex addition with TBST. • 5. Add 50 μl of diluted complexes to Protein A plate and incubate for 60 min at room temperature. • 6. Wash plate with TB ST. • 7. Add 25 μl of diluted compounds (in HDAC buffer) to each well and incubate for 10 min at room temperature. • 8. […] Move 40 μl of reaction to a white plate and add 20 μl of activator/developer solution, mix thoroughly. • 10. Read plate.

[3] = tested on: HDACs (nuclear HeLa extract); assay: pan-HDAC fluorescent biochemical assay with nuclear HeLa extract; details: HDAC peptide substrate, 60 min at 37° C.
Procedure: Substrate was synthesized in house. Stocks were prepared in DMSO (10 mM).
Compound working solution: Compounds dissolved in assay buffer at 4× Screening concentration. Activator solution: Trypsin (10 mg/mL) diluted 1:1600 in Assay Buffer containing 4 μM TSA.
Total reaction Volume: 40 μL
Reaction was allowed to run for 60 minutes at 37° C.
2. Combine in a white ½ area well plate: 10 μl of 4× compound (or buffer), 15 μl of substrate and 15 μl of HeLa extract. Mix well
3. Incubate at 37° C. for 60 min.
4. Prepare Activator solution. Dilute Trypsin 1:1600 in Assay Buffer+4μM TSA. 20 μl is needed per assay point.
5. Add 20 μl of prepared activator solution and mix thoroughly.
The hydroxamic-acid based compounds of the present invention were tested in the biochemical assay for their pan-HDAC inhibitory activity.

[4] = tested on: HH cells; assay: MTS cell viability assay, HH; type: cell-based; details: Homo sapiens, 72 hr, read-out: HH, IG50, MTS
Procedure: The MTS cell viability assay was used to determine the potency of proliferation inhibitor with. MTS measures mitochondrial dehydrogenase activity and serves as surrogate readout for the number of viable cells. The protocol described below is based upon the “CellTiter 96 Aqueous Non-Radioactive Cell Proliferation Assay” sold by Promega (Technical Bulletin No. 169).
as §2

[5] = target: HDAC5 (Homo sapiens, UniProt Q9UQL6); assay: HDAC isoform assay, HDAC5
HDAC5, sequence (Q9UQL6 whole entry, canonical isoform): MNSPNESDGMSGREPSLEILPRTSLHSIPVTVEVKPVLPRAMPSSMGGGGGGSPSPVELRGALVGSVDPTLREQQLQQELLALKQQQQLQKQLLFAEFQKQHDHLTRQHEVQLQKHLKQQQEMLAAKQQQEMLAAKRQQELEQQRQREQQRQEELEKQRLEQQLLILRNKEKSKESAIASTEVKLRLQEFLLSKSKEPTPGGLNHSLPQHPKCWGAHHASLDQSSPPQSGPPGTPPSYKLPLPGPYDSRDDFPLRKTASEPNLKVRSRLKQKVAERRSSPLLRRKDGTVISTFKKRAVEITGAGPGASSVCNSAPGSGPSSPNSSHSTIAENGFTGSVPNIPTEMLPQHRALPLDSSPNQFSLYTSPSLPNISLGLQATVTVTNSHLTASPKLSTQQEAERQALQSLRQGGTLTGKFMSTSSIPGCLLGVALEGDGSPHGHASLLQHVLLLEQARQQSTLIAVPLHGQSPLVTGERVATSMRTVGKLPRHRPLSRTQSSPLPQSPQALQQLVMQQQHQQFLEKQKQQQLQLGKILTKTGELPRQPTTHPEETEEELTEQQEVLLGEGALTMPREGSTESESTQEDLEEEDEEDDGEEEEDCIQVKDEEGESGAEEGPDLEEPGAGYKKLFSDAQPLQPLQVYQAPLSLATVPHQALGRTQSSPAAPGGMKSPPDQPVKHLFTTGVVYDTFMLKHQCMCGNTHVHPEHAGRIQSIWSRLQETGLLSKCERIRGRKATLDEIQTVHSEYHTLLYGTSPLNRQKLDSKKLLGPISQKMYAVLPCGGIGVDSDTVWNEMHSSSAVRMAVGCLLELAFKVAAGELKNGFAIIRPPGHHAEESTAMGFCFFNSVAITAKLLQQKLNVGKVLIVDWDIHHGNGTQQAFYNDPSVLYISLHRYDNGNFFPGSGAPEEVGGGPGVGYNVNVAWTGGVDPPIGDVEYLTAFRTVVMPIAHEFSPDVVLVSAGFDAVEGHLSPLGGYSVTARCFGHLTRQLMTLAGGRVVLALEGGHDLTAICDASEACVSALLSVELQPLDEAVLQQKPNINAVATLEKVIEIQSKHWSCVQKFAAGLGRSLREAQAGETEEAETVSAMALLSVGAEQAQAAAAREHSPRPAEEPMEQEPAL

[6] = target: T2, HDAC3 (Homo sapiens, UniProt O15379); assay: HDAC isoform assay, HDAC3; type: biochemical; details: substrate KI-177; read-out: HDAC3, IC50, ELISA (KI-177)
T2 construct: purchased BioMol
T2 sequence (O15379 whole entry, canonical isoform): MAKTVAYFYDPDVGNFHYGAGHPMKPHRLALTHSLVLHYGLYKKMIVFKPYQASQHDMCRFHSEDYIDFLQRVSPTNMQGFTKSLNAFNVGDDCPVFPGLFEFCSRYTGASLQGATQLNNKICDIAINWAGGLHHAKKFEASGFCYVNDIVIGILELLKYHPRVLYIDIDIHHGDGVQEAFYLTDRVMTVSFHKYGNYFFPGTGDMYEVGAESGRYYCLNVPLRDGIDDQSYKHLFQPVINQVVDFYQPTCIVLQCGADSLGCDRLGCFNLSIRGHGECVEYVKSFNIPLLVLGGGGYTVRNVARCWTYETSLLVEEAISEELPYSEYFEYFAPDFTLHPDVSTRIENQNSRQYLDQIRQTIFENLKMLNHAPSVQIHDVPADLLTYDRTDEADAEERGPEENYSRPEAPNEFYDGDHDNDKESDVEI
T2 sequence (O75376 395-489 partner limits assumed): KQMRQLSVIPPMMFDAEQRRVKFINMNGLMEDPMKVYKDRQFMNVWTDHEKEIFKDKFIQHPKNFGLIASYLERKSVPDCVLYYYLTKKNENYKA
Procedure: The assay measures the ability of a small molecule to inhibit deacetylation of the substrate. Activator reagent recognizes the substrate only if the lysine has been deacetylated.
This homogeneous assay in performed in the same well without washing steps. The HDAC source, nuclear HeLa extract, is incubated with substrate in the presence of an inhibitor compound. At the end of the reaction time, activator solution, containing Trypsin and TSA, is added to stop the deacetylation reaction, and cleave the amino-coumarin from the deacetylated substrate. The plate is then read on either a Perkin Elmer Victor or Envision system using Umbilliferone filter set. […] The signal is directly proportional to the activity of HDACs and compound inhibition of HDAC is monitored by a decrease in signal.

[7] = target: T3, HDAC2 (Homo sapiens, UniProt Q92769); assay: HDAC isoform assay, HDAC2; type: biochemical; details: substrate KI-177; read-out: HDAC2, IC50, ELISA (KI-177)
T3 construct: purchased BioMol
T3 sequence (Q92769 whole entry, canonical isoform): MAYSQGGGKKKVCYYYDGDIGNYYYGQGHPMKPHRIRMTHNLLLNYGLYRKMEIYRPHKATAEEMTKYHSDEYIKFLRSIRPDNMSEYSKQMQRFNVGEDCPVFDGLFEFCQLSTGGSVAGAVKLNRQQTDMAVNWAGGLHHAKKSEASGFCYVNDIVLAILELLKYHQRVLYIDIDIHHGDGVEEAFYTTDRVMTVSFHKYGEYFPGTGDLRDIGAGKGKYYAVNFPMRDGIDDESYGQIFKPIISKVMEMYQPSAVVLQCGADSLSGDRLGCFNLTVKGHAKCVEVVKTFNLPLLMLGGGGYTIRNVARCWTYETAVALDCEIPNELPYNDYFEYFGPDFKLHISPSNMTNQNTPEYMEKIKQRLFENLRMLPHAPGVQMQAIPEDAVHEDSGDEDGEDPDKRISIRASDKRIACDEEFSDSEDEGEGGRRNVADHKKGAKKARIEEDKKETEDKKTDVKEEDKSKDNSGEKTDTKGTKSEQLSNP

[8] = tested on: MJ cells; assay: MTS cell viability assay, MJ; type: cell-based; details: 72 hr, read-out: MJ, IG50, MTS
Procedure: as §1, §2

[9] = target: T4, HDAC6 (Homo sapiens, UniProt Q9UBN7); assay: HDAC isoform assay, HDAC6
T4 sequence (Q9UBN7 1-1215): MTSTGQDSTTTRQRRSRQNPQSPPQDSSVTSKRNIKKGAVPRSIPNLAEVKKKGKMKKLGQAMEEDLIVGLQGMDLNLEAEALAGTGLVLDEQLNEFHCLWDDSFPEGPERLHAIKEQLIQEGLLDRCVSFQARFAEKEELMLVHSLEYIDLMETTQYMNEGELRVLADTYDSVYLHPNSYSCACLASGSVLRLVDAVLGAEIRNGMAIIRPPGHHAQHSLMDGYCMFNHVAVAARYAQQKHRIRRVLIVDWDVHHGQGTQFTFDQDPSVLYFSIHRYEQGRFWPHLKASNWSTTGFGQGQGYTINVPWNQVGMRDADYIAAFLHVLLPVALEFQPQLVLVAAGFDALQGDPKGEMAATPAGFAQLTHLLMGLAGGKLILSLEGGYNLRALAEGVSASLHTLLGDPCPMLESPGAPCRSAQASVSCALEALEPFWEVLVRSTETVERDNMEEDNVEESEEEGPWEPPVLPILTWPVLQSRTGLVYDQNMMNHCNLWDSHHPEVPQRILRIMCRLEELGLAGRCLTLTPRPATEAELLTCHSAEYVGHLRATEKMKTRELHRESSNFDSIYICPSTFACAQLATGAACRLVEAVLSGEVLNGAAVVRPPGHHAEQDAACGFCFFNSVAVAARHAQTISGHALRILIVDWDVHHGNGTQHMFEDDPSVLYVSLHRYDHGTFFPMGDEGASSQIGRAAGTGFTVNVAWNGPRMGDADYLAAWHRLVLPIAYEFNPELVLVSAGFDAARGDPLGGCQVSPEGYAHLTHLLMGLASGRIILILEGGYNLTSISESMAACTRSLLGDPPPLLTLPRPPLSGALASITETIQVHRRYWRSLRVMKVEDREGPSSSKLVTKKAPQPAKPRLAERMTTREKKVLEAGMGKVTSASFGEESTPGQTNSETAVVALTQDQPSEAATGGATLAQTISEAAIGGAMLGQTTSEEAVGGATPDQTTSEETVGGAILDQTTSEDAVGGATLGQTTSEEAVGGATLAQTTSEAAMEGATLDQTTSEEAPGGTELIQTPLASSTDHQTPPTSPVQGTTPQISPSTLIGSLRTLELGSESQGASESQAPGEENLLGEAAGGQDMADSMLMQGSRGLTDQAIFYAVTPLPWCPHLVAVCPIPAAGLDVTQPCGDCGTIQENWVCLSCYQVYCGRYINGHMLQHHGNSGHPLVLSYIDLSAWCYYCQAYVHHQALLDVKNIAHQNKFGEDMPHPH

[10] = target: T5, HDAC8 (Homo sapiens, UniProt Q9BY41); assay: HDAC isoform assay, HDAC8
T5 sequence (Q9BY41 1-377): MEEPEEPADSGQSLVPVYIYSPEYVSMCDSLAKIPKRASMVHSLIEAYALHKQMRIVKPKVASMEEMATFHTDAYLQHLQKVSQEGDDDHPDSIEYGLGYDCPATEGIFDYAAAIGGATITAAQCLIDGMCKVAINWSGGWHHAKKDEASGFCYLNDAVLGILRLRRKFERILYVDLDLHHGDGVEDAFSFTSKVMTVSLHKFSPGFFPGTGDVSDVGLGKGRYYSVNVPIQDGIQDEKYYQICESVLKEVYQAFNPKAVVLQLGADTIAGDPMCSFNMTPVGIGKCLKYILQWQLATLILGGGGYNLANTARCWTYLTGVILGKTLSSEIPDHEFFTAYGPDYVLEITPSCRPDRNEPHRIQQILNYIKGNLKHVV

[11] = target: T6, HDAC4 (Homo sapiens, UniProt P56524); assay: HDAC isoform assay, HDAC4; type: biochemical; details: substrate KI-177; read-out: HDAC4, IC50, ELISA (KI-177)
T6 construct: purchased BioMol
T6 sequence (P56524 whole entry, canonical isoform): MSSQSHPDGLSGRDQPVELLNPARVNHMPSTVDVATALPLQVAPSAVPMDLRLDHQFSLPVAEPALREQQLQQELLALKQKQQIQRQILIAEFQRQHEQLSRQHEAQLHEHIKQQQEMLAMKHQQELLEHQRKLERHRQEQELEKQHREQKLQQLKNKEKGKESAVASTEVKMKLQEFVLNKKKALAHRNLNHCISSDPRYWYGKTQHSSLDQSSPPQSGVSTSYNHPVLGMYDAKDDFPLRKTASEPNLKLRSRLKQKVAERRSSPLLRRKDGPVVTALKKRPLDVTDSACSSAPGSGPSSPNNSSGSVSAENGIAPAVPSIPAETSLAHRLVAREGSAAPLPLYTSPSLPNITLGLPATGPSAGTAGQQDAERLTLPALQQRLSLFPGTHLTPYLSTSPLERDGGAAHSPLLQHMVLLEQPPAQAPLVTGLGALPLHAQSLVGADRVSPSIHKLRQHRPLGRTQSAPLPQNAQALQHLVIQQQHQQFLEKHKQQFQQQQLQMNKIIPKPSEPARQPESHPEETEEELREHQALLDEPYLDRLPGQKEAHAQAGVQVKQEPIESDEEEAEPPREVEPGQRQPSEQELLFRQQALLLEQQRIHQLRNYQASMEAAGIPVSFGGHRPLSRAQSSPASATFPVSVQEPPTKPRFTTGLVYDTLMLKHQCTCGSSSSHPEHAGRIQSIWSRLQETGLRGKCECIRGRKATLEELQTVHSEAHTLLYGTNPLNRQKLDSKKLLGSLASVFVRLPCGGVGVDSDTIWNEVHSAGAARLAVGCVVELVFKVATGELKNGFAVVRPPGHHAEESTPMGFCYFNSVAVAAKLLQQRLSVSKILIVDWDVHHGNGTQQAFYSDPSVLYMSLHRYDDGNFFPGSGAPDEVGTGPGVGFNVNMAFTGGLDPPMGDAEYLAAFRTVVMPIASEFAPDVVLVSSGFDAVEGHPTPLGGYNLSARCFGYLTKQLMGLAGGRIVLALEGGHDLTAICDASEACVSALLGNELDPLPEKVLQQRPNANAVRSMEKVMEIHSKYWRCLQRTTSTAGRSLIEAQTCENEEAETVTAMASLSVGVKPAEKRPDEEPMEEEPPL

For `O=C(CCCCCCCNC(=O)c1cn2c3c(cccc13)CCC2)NO`, which melting point is on record?
Its melting point is 174 to 176 °C.

With `O=C(CCCCNC(=O)c1cn2c3c(cccc13)CCC2)NO` [compound 5, N-[5-(hydroxyamino)-5-oxopentyl]-5,6-dihydro-4H-pyrrolo[3,2,1-ij]quinoline-1-carboxamide] as the compound, how does the IC50 [1] read?
Its IC50 is 5.81 µM.

What about the IC50 [2] of the same compound?
Its IC50 is 0.583 µM.

And the IC50 [3]?
Its IC50 is 0.809 µM.

What about the melting point of the same compound?
Its melting point is 179 to 181 °C.

Which IC50 [1] does the source give for `O=C(NO)c1ccc(CNC(=O)c2cn3c4c(cccc24)CCC3)cc1` [compound 6, N-{4-[(hydroxyamino)carbonyl]benzyl}-5,6-dihydro-4H-pyrrolo[3,2,1-ij]quinoline-1-carboxamide] here?
Its IC50 is 0.457 µM.

And the IC50 [4]?
Its IC50 is 0.091 µM.

What about the IC50 [3] of the same compound?
The IC50 was 0.0708 µM.

What about the IC50 [5] of the same compound?
Its IC50 is 0.0369 µM.

What about the IC50 [6] of the same compound?
The IC50 was 0.0265 µM.

What about the IC50 [7] of the same compound?
The IC50 was 3 µM.

What about the IC50 [8] of the same compound?
The IC50 was 0.58 µM.

And the melting point?
Its melting point is 191 to 192 °C.

What about the IC50 [9] of the same compound?
Its IC50 is 0.00782 µM.

Which IC50 [1] does the source give for `O=C(CCCCCCN(Cc1ccccc1)C(=O)c1cn2c3c(cccc13)CCC2)NO` [compound 14, N-benzyl-N-[7-(hydroxyamino)-7-oxoheptyl]-5,6-dihydro-4H-pyrrolo[3,2,1-ij]quinoline-1-carboxamide] here?
The IC50 was 3.8 µM.

What about the IC50 [3] of the same compound?
Its IC50 is 0.78 µM.

And the melting point?
Its melting point is 71 to 73 °C.

With `CC(C)(C)OC(=O)N1CCn2cc(C(=O)NCc3ccc(C(=O)NO)cc3)c3cccc(c32)C1` [compound 15, tert-butyl 7-{[4-(hydroxycarbamoyl)benzyl]carbamoyl}-3,4-dihydro[1,4]diazepino[6,7,1-hi]indole-2(1H)-carboxylate] as the compound, how does the IC50 [10] read?
Its IC50 is 3.45 µM.

And the IC50 [2]?
The IC50 was 0.492 µM.

What about the IC50 [3] of the same compound?
The IC50 was 0.505 µM.

What about the IC50 [11] of the same compound?
The IC50 was 0.791 µM.

What about the IC50 [6] of the same compound?
The IC50 was 0.518 µM.

What about the IC50 [7] of the same compound?
Its IC50 is 10 µM.

And the IC50 [9]?
The IC50 was 0.203 µM.

What does the source list for `O=C(Cc1ccc(NC(=O)c2cn3c4c(cccc24)CCC3)cc1)NO` [compound 16, N-{4-[2-(hydroxyamino)-2-oxoethyl]phenyl}-5,6-dihydro-4H-pyrrolo[3,2,1-ij]quinoline-1-carboxamide]?
IC50 [3]: 2 µM; melting point: 199 to 202 °C

For `CC(=O)CCC1CCN(C(=O)c2cn3c4c(cccc24)CCC3)CC1` [compound 19, 4-[1-(5,6-dihydro-4H-pyrrolo[3,2,1-ij]quinolin-1-ylcarbonyl)piperidin-4-yl]butan-2-one], which IC50 [3] is on record?
Its IC50 is 20 µM.

Which results are given for `Nc1ccccc1NC(=O)CCCCCCNC(=O)c1cn2c3c(cccc13)CCC2` [compound 20, N-{7-[(2-aminophenyl)amino]-7-oxoheptyl}-5,6-dihydro-4H-pyrrolo[3,2,1-ij]quinoline-1-carboxamide]?
IC50 [3]: 4.39 µM; melting point: 144 to 145 °C

Which results are given for `Nc1cc(Cl)c(Cl)cc1NC(=O)CCCCCCNC(=O)c1cn2c3c(cccc13)CCC2` [compound 21, N-{7-[(2-amino-4,5-dichlorophenyl)amino]-7-oxoheptyl}-5,6-dihydro-4H-pyrrolo[3,2,1-ij]quinoline-1-carboxamide]?
IC50 [3]: 15.5 µM; melting point: 124 to 125 °C

What does the source list for `COc1cccc(-c2cn3cc(C(=O)NCCCCCCC(=O)NO)sc3n2)c1` [compound 22, N-[7-(hydroxyamino)-7-oxoheptyl]-6-(3-methoxyphenyl)imidazo[2,1-b][1,3]thiazole-2-carboxamide]?
IC50 [3]: 0.487 µM; melting point: 209 to 211 °C

What does the source list for `O=C(CCCCCCNC(=O)c1cc2cccc3c2n1CCC3)NO` [compound 23, N-[7-(hydroxyamino)-7-oxoheptyl]-5,6-dihydro-4H-pyrrolo[3,2,1-ij]quinoline-2-carboxamide]?
IC50 [2]: 0.017 µM; IC50 [11]: 0.028 µM; IC50 [6]: 0.037 µM; IC50 [7]: 3 µM; melting point: 160 to 161 °C; IC50 [9]: 0.043 µM
